The values below come from PubChem BioAssay (NCI).

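Method: 48-hour compound exposure of cells in 96-well plates, five concentrations, linear interpolation of endpoints. TGI is the concentration that stops growth completely.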

For orientation: TGI means the concentration at which net growth stops. A high value points to lower sensitivity of the cells.

Some test systems named below: SK-MEL-5 melanoma; HT29 colon; SF-268 CNS; HL-60(TB) leukemia; ACHN renal; EKVX NSCLC; NCI/ADR-RES ovarian; SK-MEL-2 melanoma; TK-10 renal; NCI-H226 lung.
Holding throughout (experiment): DTP human tumour cell line panel, 48 h

As to `CCCCCCCCCCCCCCCC(=O)OC1C(O)C(O)C(O)C(O)C12CO2` (stereo not given), the TGI with SK-MEL-5 melanoma was greater than 100 µM; in the experiment with HT29 colon, greater than 100 µM; in the experiment on SF-268 CNS, greater than 100 µM; in the experiment on HL-60(TB) leukemia, 45.7 µM; in the experiment with ACHN renal, greater than 100 µM; in the experiment on EKVX NSCLC, 61.4 µM. Moreover, the TGI with NCI/ADR-RES ovarian, with SK-MEL-2 melanoma, in the experiment on TK-10 renal and with NCI-H226 lung was greater than 100 µM in each case.

On to `NS(=O)(=O)c1ccc(NC(=O)c2ccc3nc4ccccc4c(Nc4ccc(S(N)(=O)=O)cc4)c3c2)cc1`, for which the TGI with SK-MEL-5 melanoma, in the experiment on HT29 colon, with SF-268 CNS, in the experiment with HL-60(TB) leukemia, in the experiment on ACHN renal and in the experiment with EKVX NSCLC was greater than 100 µM each time. The TGI with NCI/ADR-RES ovarian, in the experiment with SK-MEL-2 melanoma, in the experiment with TK-10 renal and with NCI-H226 lung was greater than 100 µM in each case.

For `CCCCCCCCCCCCc1ccsc1-c1ccc(-c2ccc(-c3sccc3CCCCCCCCCCCC)s2)s1`, the TGI in the experiment on SK-MEL-5 melanoma, with HT29 colon, in the experiment with SF-268 CNS, with HL-60(TB) leukemia, with ACHN renal and with EKVX NSCLC was greater than 100 µM each time. In addition, the TGI with NCI/ADR-RES ovarian, in the experiment on SK-MEL-2 melanoma, in the experiment with TK-10 renal and in the experiment with NCI-H226 lung was greater than 100 µM throughout.

`C#CCn1c(=O)ccn(/C(=C/C(=O)OCC)C(=O)OCC)c1=O`: the TGI is 31 µM with SK-MEL-5 melanoma; 5.64 µM with HT29 colon; 26.9 µM in the experiment with SF-268 CNS; greater than 52.9 µM in the experiment with HL-60(TB) leukemia; 3.21 µM in the experiment with ACHN renal; 20.3 µM with EKVX NSCLC. In addition, the TGI in the experiment on NCI/ADR-RES ovarian is 13.8 µM; with SK-MEL-2 melanoma, 30.2 µM; with TK-10 renal, 3.68 µM; in the experiment with NCI-H226 lung, 39.7 µM.

Turning to `OCC1OC(n2cnc3c(Cl)nc(Nc4ccc(Cl)c(Cl)c4)nc32)CC1O` (stereo not given), the TGI with SK-MEL-5 melanoma turned out to be 16.9 µM; with HT29 colon it was 15.2 µM; with SF-268 CNS it was 28.6 µM; with HL-60(TB) leukemia, 16.4 µM; with ACHN renal it was 19.9 µM; with EKVX NSCLC, 28.2 µM. The concentration for total growth inhibition (TGI) was determined as 25.3 µM in the experiment on NCI/ADR-RES ovarian, 19.2 µM with SK-MEL-2 melanoma, 35.6 µM in the experiment with TK-10 renal and 20.2 µM in the experiment with NCI-H226 lung.

`CN1CCc2c(sc3ncn(Nc4ccc(F)cc4)c(=N)c23)C1`: the TGI in the experiment with SK-MEL-5 melanoma, in the experiment with HT29 colon, in the experiment on SF-268 CNS, in the experiment with HL-60(TB) leukemia, in the experiment with ACHN renal and in the experiment on EKVX NSCLC was greater than 100 µM in each case. The TGI in the experiment with NCI/ADR-RES ovarian, with SK-MEL-2 melanoma, with TK-10 renal and in the experiment on NCI-H226 lung was greater than 100 µM each time.

For the compound `CC(C)C(=O)/C=C/c1c(Cl)cccc1Cl`, the TGI is 18.2 µM in the experiment on SK-MEL-5 melanoma; 11.2 µM in the experiment on HT29 colon; 10.5 µM in the experiment on SF-268 CNS; greater than 100 µM in the experiment with HL-60(TB) leukemia; 16.2 µM in the experiment with ACHN renal; 26 µM with EKVX NSCLC. The TGI in the experiment on NCI/ADR-RES ovarian worked out at 9.23 µM; in the experiment on SK-MEL-2 melanoma it was 7.99 µM; with TK-10 renal, 24.5 µM; with NCI-H226 lung, 8.01 µM.

For the compound `COC(=O)C1Cc2cc3c(cc2C1)CCC3`, the TGI in the experiment on SK-MEL-5 melanoma, with HT29 colon, with SF-268 CNS, with HL-60(TB) leukemia, with ACHN renal and with EKVX NSCLC was greater than 100 µM throughout. Besides, the concentration for total growth inhibition (TGI) with NCI/ADR-RES ovarian, in the experiment with SK-MEL-2 melanoma, with TK-10 renal and with NCI-H226 lung was greater than 100 µM in each case.

Turning to `COc1cc(OC)c(/C=N\Nc2nc3ccccc3c(=O)n2-c2ccccc2)c(OC)c1`, the TGI in the experiment with SK-MEL-5 melanoma is greater than 79.7 µM; in the experiment on HT29 colon, 54.3 µM; with SF-268 CNS, greater than 100 µM; in the experiment with HL-60(TB) leukemia, greater than 100 µM; with ACHN renal, 38.8 µM; with EKVX NSCLC, 63.7 µM. The TGI with NCI/ADR-RES ovarian was 46.9 µM; in the experiment with SK-MEL-2 melanoma, 64 µM; in the experiment with TK-10 renal it was greater than 66 µM; with NCI-H226 lung it was 44 µM.

For the compound `CC1(C)[C@H]2Cc3cc4nc5ccccn5c4cc3[C@@H]1C2`, the TGI in the experiment on SK-MEL-5 melanoma is 34.3 µM; with HT29 colon, 28.3 µM; in the experiment on SF-268 CNS it was 34.5 µM; in the experiment on HL-60(TB) leukemia, 57.2 µM; in the experiment on ACHN renal it was 34.2 µM; in the experiment on EKVX NSCLC it was 32.7 µM. The concentration for total growth inhibition (TGI) with NCI/ADR-RES ovarian is 36.7 µM; in the experiment with SK-MEL-2 melanoma it was 32 µM; in the experiment on TK-10 renal, 33 µM; in the experiment on NCI-H226 lung, 35.4 µM.

As to `C[C@@H]1CC[C@@]2(C)[C@H](C)/C(=C\COC(=O)/C=C/c3ccc(O)c(O)c3)CC[C@@]12C`, the TGI was found to be 17 µM with SK-MEL-5 melanoma; 25.1 µM with HT29 colon; 23.5 µM in the experiment on SF-268 CNS; 13.4 µM in the experiment on HL-60(TB) leukemia; 16.6 µM in the experiment with ACHN renal; 30.8 µM in the experiment on EKVX NSCLC. Also, the TGI is 23.5 µM in the experiment with NCI/ADR-RES ovarian, 25.4 µM in the experiment on SK-MEL-2 melanoma, 11.5 µM with TK-10 renal and 20.8 µM with NCI-H226 lung.

With `NC1NCCC(=O)N1CCc1c[nH]c2ccccc12` (stereo not given), the TGI was determined as 30.8 µM in the experiment on SK-MEL-5 melanoma; 82.9 µM in the experiment on HT29 colon; 46.4 µM with SF-268 CNS; 44.7 µM in the experiment with HL-60(TB) leukemia; 55.5 µM in the experiment with ACHN renal; 75.5 µM in the experiment with EKVX NSCLC. Moreover, the TGI in the experiment on NCI/ADR-RES ovarian is 69.4 µM; in the experiment on SK-MEL-2 melanoma, 35.5 µM; in the experiment on TK-10 renal it was 51.7 µM; in the experiment with NCI-H226 lung, 66.3 µM.

`Cc1c(C#N)c2nc3ccccc3n2c(=O)/c1=C/Nc1ccc(Cl)cc1`: the TGI is greater than 100 µM in the experiment with SK-MEL-5 melanoma; greater than 100 µM with HT29 colon; greater than 100 µM in the experiment with SF-268 CNS; greater than 100 µM with HL-60(TB) leukemia; 25 µM with ACHN renal; greater than 100 µM in the experiment with EKVX NSCLC. The TGI in the experiment with NCI/ADR-RES ovarian is greater than 100 µM; in the experiment on SK-MEL-2 melanoma, 46.6 µM; in the experiment on TK-10 renal it was 35.7 µM; in the experiment with NCI-H226 lung, greater than 100 µM.

Consider `COc1ccc(/C=C/C(=O)CCN2CCN(CCC(=O)/C=C/c3ccc(OC)cc3)CC2)cc1`, for which the TGI in the experiment with SK-MEL-5 melanoma was 32 µM; with HT29 colon it was 23.8 µM; with SF-268 CNS, 41.7 µM; in the experiment with HL-60(TB) leukemia, greater than 100 µM; in the experiment with ACHN renal, 27.2 µM; with EKVX NSCLC it was 28.2 µM. In addition, the TGI in the experiment with NCI/ADR-RES ovarian stood at 96 µM; in the experiment with SK-MEL-2 melanoma it was 42 µM; in the experiment with TK-10 renal it was 28 µM; in the experiment on NCI-H226 lung, 52.8 µM.
